Patent US11090391B2, “Protein nanocages with enhanced mucus penetration for targeted tissue and intracellular delivery” (The Johns Hopkins University, priority 2016, dated 2021)
Several values for one entry are separate records, joined by “and”; a condition that tells them apart may be missing. Identical values can stand only once.

Key:
[1] = Physicochemical properties (hydrodynamic diameter, ζ-potential, drug loading)
Experimental: The DOX conjugated PEG-FTn is denoted as FTn/FTn-PEG2k/DOX. […] The mixture was incubated for 1 hour and 1.5 mg EDC was added to activate a carboxyl group of each DOX-linker conjugate. The resultant compounds were analyzed using high-performance liquid chromatography (HPLC, Varian Inc.) equipped with a C18 reverse phase column. […] The final product was extensively dialyzed (10 kDa MWCO; Thermo Scientific) and purified with a PD-10 column.

3LL cells = experiment: Intracellular trafficking, confocal microscopy; format: cell-based, mouse
H460-based spheroids = experiment: Penetration of DOX formulations in tumor spheroids; format: cell-based, human
Experimental: (§1) Multicellular tumor spheroid models consisting of different cancer cell lines were prepared by modifying a previously reported protocol (Friedrich J, et al, Nature Protocols, 4:309-324 (2009)). Briefly, 50 μL DMEM medium containing 1.5% agarose (wt/vol) was plated onto each well of a 96-well microtiter plate under sterile conditions. After the agarose solidifies, the plates were stored at room temperature until use. For the penetration study, 5×10^3 cells were seeded onto the agarose-plated 96-well plates. After 4-5 days culture to obtain multicellular tumor spheroids (400-500 μm in diameter), the tumor spheroids were carefully transferred into glass bottom dishes. […] After the 2-hour incubation, the cells were observed using confocal microscopy with Z-stack imaging at ˜10 μm intervals. […] The 3D images of spheroids were reconstructed by ZEN microscopy software (Carl Zeiss). For analyzing the penetration distance, the radial intensity distribution profile was determined using a custom-made MATLAB code where αtumor is the radius of individual spheroids and r is the radial distance from the spheroid center (r/αtumor=0 and 1 indicate the center and edge of the tumor spheroid, respectively). […] Quantification analysis of signal intensity was performed with ImageJ software (NIH).
(§2) Multicellular tumor spheroids were prepared and post-treatment analyzed as described in Example 4.

H1975-based spheroids = experiment: Penetration of DOX formulations in tumor spheroids; format: cell-based, human
Experimental: as §1, §2

A549-based spheroids = experiment: Penetration of DOX formulations in tumor spheroids; format: cell-based, human
Experimental: as §1, §2

[2] = test system: 3LL-Luc orthotopic proximal lung cancer; experiment: In vivo anti-cancer efficacy, orthotopic proximal lung cancer model; set-up: species or system mouse
Excerpt: To evaluate the efficacy of PEG-FTn-DOX for treating lung airway cancer, an aggressive orthotopic mouse model was established of proximal lung cancer in inbred mice with intact host immunity. The model was established via intratracheal intubation of cancer cells into the tracheal and bronchial epithelium of lung airways (DuPage M, et al., Nature protocols, 4:1064-1072 (2009)), which was relevant to small cell lung cancer and squamous-cell lung cancer. Briefly, female C57BL/6 mice (6-8 weeks) were inoculated with 2.5×10^4 3 LL-Luc cells in 50 μL of DMEM medium via intratracheal intubation using a 22 G×1″ Safelet catheter (Exel International). Three days after the inoculation, bioluminescence signal in the lung was observed using a Xenogen IVIS Spectrum optical imaging system. […] The tumor growth was monitored at various time points using an IVIS imaging system and the bioluminescence signal in lung at different time points was quantitatively analyzed by the Living Image® (Caliper Life Sciences) software. The survival of mice was recorded daily, and data was analyzed by Kaplan-Meier survival curve.
The luciferase activity of 3LL-Luc was visualized and quantified by a Xenogen IVIS Spectrum optical imaging system. In brief, mice were anesthetized with 2% isoflurane in O2 and received intraperitoneal injection of D-luciferin solution in PBS at a dose of 150 mg/kg. Serial images were acquired between 5 and 20 minutes after the D-luciferin administration, and the bioluminescence signal intensity was quantified by the Living Image® software.

[3] = In vitro pH-sensitive DOX release, dialysis; format: physicochemical
Experimental: At designated times up to 6 days, 150 μL of solution outside the dialysis bag was collected and the same amount of fresh PBS was added back. After 3 days of incubation, the buffer was adjusted to pH 5.0 to induce the release of DOX from PEG-FTn. The concentrations of released free DOX at varying time points were measured by HPLC.

3LL tumor spheroids = experiment: Growth delay of 3D cell spheroids; format: cell-based, mouse; conditions: 10 μM DOX, up to 11 days
Experimental: For cytotoxicity and growth delay experiments of 3D cell spheroids, 5×10^3 cells were seeded into the 96-well plates containing agarose. […] The diameters of tumor spheroids were recorded with a Zeiss Axiovert 200 phase-contrast microscope (Carl Zeiss) at the indicated time points.

[4] = test system: 3LL-based tumor spheroids; experiment: Penetration of DOX formulations in tumor spheroids; format: cell-based, mouse; conditions: 10 μM DOX concentration
Experimental: as §1, §2

3LL subcutaneous tumor = experiment: Tumor growth, 3LL subcutaneous tumor model, tail vein injection; format: in vivo; conditions: day 10, injections at days 0, 2, 4, 6, 8
Experimental: […] was injected at the tail vein to assay the effect on tumor growth in a 3LL subcutaneous tumor model at several time points (0, 2, 4, 6, and 8 days post tumor development). At day 10 post tumor development, the tumor volume was reduced in the animals treated with AF, as well as in the animals treated with […] treatment.

Hif-1α = Hif-1α expression, western blotting in 3LL cells; format: cell-based, mouse; conditions: 0.625 to 2.5 μM AF, dose- and time-dependent
Experimental: The inhibition was dose-dependent, i.e., increasing the amount of AF in the free AF or that in […] from 0.625 μM to 1.25 μM, further to 2.5 μM, decreased the level of Hif-1α expression. The inhibition was also time-dependent, i.e., the inhibition was more prominent after a 6 hour-incubation than a 24 h-incubation, and even more prominent than a 48 h-incubation. Hif-1α, a marker for tumor hypoxia, is an indicator of cancer progression, metastasis, and drug resistance in clinic.

[5] = test system: 3LL cells stably expressing firefly luciferase (3LL-Luc); experiment: In vitro cytotoxicity, luciferase activity; format: cell-based, mouse; conditions: 24 hour treatment
Experimental: Cytotoxicity was evaluated by optical imaging of luciferase expression. 3LL cells stably expressing firefly luciferase (3LL-Luc) were treated with various concentrations of PEG-FTn-DOX and DOX for 24 hour. After adding a D-luciferin solution, the bioluminescence imaging was acquired by a Xenogen IVIS Spectrum optical imaging system (Caliper Life Sciences). The luciferase activity was quantified to determine IC50 by fitting the data with nonlinear regression using GraphPad Prism.

[6] = single intratracheal dose 0.25 mg/kg, 11 days after treatment

FTn/FTn-PEG2k/DOX: DOX conjugated to FTn/FTn-PEG2k via acid-sensitive cis-aconityl linker
DOX molecules per PEG-FTn [1]: 88±5 and 88 ± 22
Hydrodynamic diameter [1]: 15.3 ± 3.2 nm
ζ-potential [1]: −7.4 ± 2.8 mV
DOX found in cytoplasm compared with nucleus (3LL cells; 30 min after addition): ~95%
DOX found in cytoplasm compared with nucleus (3LL cells; 2 h after addition): ~55%
colocalization with lysosomes (3LL cells; 2 hours after addition): colocalized with lysosomes
intracellular localization of DOX (3LL cells; 2 hours after addition): observed in both the cytoplasm and nucleus
penetration compared to free DOX (H460-based spheroids): Improved penetration
penetration compared to free DOX (H1975-based spheroids): Improved penetration
penetration compared to free DOX (A549-based spheroids): Improved penetration
progression-free survival ([2]; after 60 days): 60%
decrease in bioluminescence signal intensity compared to free DOX-treated mice [2, 6]: 17 fold
decrease in bioluminescence signal intensity compared to untreated mice [2, 6]: 40 fold
maximum release of DOX ([3]; pH 5.0, after 4 hours): ~80%
DOX released ([3]; pH 7.4, over 3 days, 37° C.): negligible
delay of spheroid growth compared to free DOX (3LL tumor spheroids): superior ability of delaying the growth
distribution in spheroids (3D confocal images) [4]: uniformly distributed throughout the entire tumor spheroid
mean fluorescence signal intensity in the entire spheroid vs free DOX [4]: significantly greater

Acriflavine [AF]
tumor volume (3LL subcutaneous tumor): reduced
Hif-1α expression (Hif-1α): inhibited Hif-1α expression

COc1cccc2c1C(=O)c1c(O)c3c(c(O)c1C2=O)C[C@@](O)(C(=O)CO)C[C@@H]3O[C@H]1C[C@H](N)[C@H](O)[C@H](C)O1 [DOX, doxorubicin, reference compound]
intracellular localization of DOX (3LL cells; 2 hours after addition): primarily localized in the cell nuclei
median survival ([2]; single intratracheal dose 0.25 mg/kg): 18 days
IC50 [5]: 480 nM
distribution in spheroids (3D confocal images) [4]: remained primarily at the periphery of the spheroids
